Data as given in paper PMC12040169 (PLOS Biology, 2025).

What was measured:
HeLa = conditions: bulk resorufin, single well, 28.5 h, 10 µM, Bulk resorufin fluorescence
in vitro = conditions: human, hela cells, % viability

Structure (SMILES)	% viability (HeLa) [%]	viability at 28.5 h, 10 µM (in vitro) [%]
C=CCNC(=O)[C@H]1C=CCN1S(=O)(=O)c1ccc(F)cc1 [CBK282320]	89.7	83.5
O=C(NC1CCCCC1)[C@H]1C=CCN1C(=O)c1ccc(F)cc1 [CBK282324]	86.4	93.9
CC(C)[C@H](Cn1nc(C2CC2)ccc1=O)NC(=O)Cc1cccs1 [CBK282368]	88.6	79.7
CC[C@@H](Cn1ncc2ccccc2c1=O)NC(=O)C1CC1 [CBK282385]	91.3	88.3
O=C(CN1C(=O)[C@H]2CCCN2C(=O)c2ccccc21)N1CCCCC1 [CBK282435]	80.4	90.6
C=CCNC(=O)Cn1c([C@@H]2CCCO2)cc2cccnc21 [CBK282873]	110	98.2
C[C@H](Cn1c(C(F)(F)F)cc2cccnc21)NC(=O)c1ccco1 [CBK282933]	94.6	91.5
CCC(=O)N1CCC[C@H](Cn2nc(-c3cccs3)ccc2=O)C1 [CBK283046]	100	95.3
C=CCNC(=O)[C@@H]1C=CCN1C(=O)c1ccccc1F [CBK283052]	98.9	105
CCn1cc(CN2C[C@@H]3CCCN3C[C@@H]2CCSC)cn1 [CBK283181]	106	86.9
O=C(NC1CCCCC1)[C@H]1C=CCN1C(=O)c1ccccc1F [CBK283334]	98	85.6
O=C(C1CCC1)N1CCC[C@H]1Cn1nc(-c2cccs2)ccc1=O [CBK284251]	78.8	80.9
O=C(NC[C@H]1CCCN(C(=O)c2cccnc2)C1)c1cccs1 [CBK284264]	90.3	81.6
CS(=O)(=O)N1CC=C[C@H]1C(=O)NCc1ccc(F)cc1 [CBK284270]	87.2	97.6
CC(C)(C)OC(=O)N1CCC[C@H]1C(=O)c1nccs1 [CBK284282]	95.5	108
CC(C)(C)OC(=O)N1CCC[C@@H]1C(=O)c1cccs1 [CBK284289]	90.7	100
COc1ccc(NC(=O)[C@@H]2C=CCN2C(=O)c2ccco2)cc1 [CBK284292]	77.2	88.5
CC[C@H](Cn1ncc2ccccc2c1=O)NC(=O)c1cccs1 [CBK284301]	90.5	96.7
CC[C@H](Cn1ncc2ccccc2c1=O)NC(=O)Cc1ccsc1 [CBK284306]	88.7	98.4
CC(C)[C@@H](Cn1nc(C2CC2)ccc1=O)NC(=O)C1CC1 [CBK284309]	85.9	86.1
C[C@@H](Cn1nnc2ccccc21)NC(=O)C1CC1 [CBK284312]	81.5	88.5
C=CCNC(=O)[C@@H]1C=CCN1C(=O)c1ccc(OC)cc1 [CBK284317]	76.8	95.4
O=C(NCCc1ccccc1)[C@@H]1C=CCN1C(=O)c1cccs1 [CBK284320]	92.9	95.2
C[C@@H](Cn1c(=O)oc2ccccc21)NC(=O)Cc1c[nH]c2ccccc12 [CBK284534]	88.7	85.7
C[C@@H](Cn1c(=O)oc2ccccc21)NC(=O)Cc1ccsc1 [CBK284535]	84.7	96.9

Structure (SMILES)	% viability (HeLa) [%]	viability at 28.5 h, 10 µM (in vitro) [%]
C[C@H](Cn1nc2c(cc1=O)CCCCC2)NC(=O)c1ccco1 [CBK284544]	88.3	84.9
C[C@H](Cn1nc2c(cc1=O)CCCCC2)NC(=O)c1ccccc1F [CBK284547]	91.5	89.5
C[C@@H]1CN2CCCC2CN1Cc1cccc2cccnc12 (some centres unmarked) [CBK284551]	87.8	82.4
C[C@@H]1CN2C[C@H](O)CC2CN1Cc1ccc2c3ccccc3n(C)c2c1 (some centres unmarked) [CBK284554]	102	91.5
C[C@H](Cn1nc2c(cc1=O)CCCCC2)NC(=O)c1ccc(F)cc1 [CBK284557]	93.4	98.4
C[C@H](Cn1nc2c(cc1=O)CCCCC2)NC(=O)c1cccc(F)c1 [CBK284558]	90	85.8
C[C@H]1CN2C[C@H](O)CC2CN1Cc1cccc(Oc2ccccc2)c1 (some centres unmarked) [CBK284566]	96.2	93.6
Cn1cc(C(=O)N2C3CCC(C3)[C@@H]2COc2ccc(F)cc2)cn1 (some centres unmarked) [CBK284605]	112	93.7
O[C@@H]1C[C@H]2CN(Cc3ccsc3)[C@@H](Cc3ccccc3)CN2C1 [CBK285376]	95.8	91.9
COC(=O)c1ccc(CN2CC3CCCN3C[C@@H]2C)cc1 (some centres unmarked) [CBK285403]	103	111
C[C@H]1CN2C[C@H](O)CC2CN1Cc1ccc(Cl)c(Cl)c1 (some centres unmarked) [CBK285404]	94.3	111
C[C@@H]1CN2CCCC2CN1Cc1ccc(N(C)C)cc1 (some centres unmarked) [CBK285406]	102	101
Cc1ccc(CN2CC3CCCN3C[C@H]2C)o1 (some centres unmarked) [CBK285407]	104	87.1
C[C@@H]1CN2CCCC2CN1Cc1ccc2ccccc2n1 (some centres unmarked) [CBK285408]	104	101
COc1ccccc1CN1CC2CCCN2C[C@H]1C (some centres unmarked) [CBK285409]	106	90.6
C[C@@H]1CN2CCCC2CN1Cc1ccc(Br)o1 (some centres unmarked) [CBK285410]	101	99.7
COc1ccc(CN2CC3CCCN3C[C@H]2C)cc1 (some centres unmarked) [CBK285412]	103	111
C[C@H]1CN2CCCC2CN1Cc1cccc(F)c1 (some centres unmarked) [CBK285425]	104	97.7
CCCn1ncc(CN2C[C@@H]3CCCN3C[C@@H]2CCSC)c1C [CBK285426]	107	104
CCCCn1cc(CN2CC3CCCN3C[C@H]2C)c(C)n1 (some centres unmarked) [CBK285433]	98.7	92.9
C[C@H]1CN2CCCC2CN1Cc1ccc(CN(C)C)cc1 (some centres unmarked) [CBK285438]	101	88.9
C=Cn1ncc(CN2C[C@@H]3CCCN3C[C@H]2CCSC)c1C [CBK285440]	101	99.4
C[C@@H]1CN2CCCC2CN1CC1CC=CCC1 (some centres unmarked) [CBK285441]	99.9	99.1
COc1cccc(CN2CC3CCCN3C[C@H]2C)c1 (some centres unmarked) [CBK285442]	105	113
C[C@H]1CN2CCCC2CN1Cc1ccccc1F (some centres unmarked) [CBK285450]	103	96.5

Structure (SMILES)	% viability (HeLa) [%]	viability at 28.5 h, 10 µM (in vitro) [%]
C[C@H]1CN2CCCC2CN1Cc1c(F)cccc1F (some centres unmarked) [CBK285451]	102	89.8
C[C@@H]1CN2CCCC2CN1Cc1ccc(F)cc1F (some centres unmarked) [CBK285455]	97.8	106
CSCC[C@@H]1CN2CCC[C@H]2CN1Cc1cn(C)nc1C [CBK285462]	107	95.5
CC(C)C(=O)N1CCC[C@H]1Cn1nc(-c2cccs2)ccc1=O [CBK285469]	96.1	97.8
O=C(NCCc1ccccc1)[C@H]1C=CCN1C(=O)c1ccccc1F [CBK285471]	104	94
C[C@H](Cn1c(=O)oc2ccccc21)NC(=O)CC1c2ccccc2Oc2ccccc21 [CBK286201]	96.8	90.1
O=C(CN1C(=O)[C@@H]2CCCN2C(=O)c2ccccc21)NCc1ccccc1 [CBK286318]	89.5	98.6
O=C(CN1C(=O)[C@H]2CCCN2C(=O)c2ccccc21)Nc1ccccc1-c1ccccc1 [CBK286321]	94.1	93.9
O=C(CN1C(=O)[C@@H]2CCCN2C(=O)c2ccccc21)NCCc1ccccc1 [CBK286402]	90	87.1
CC(C)(CC(=O)O)CC(=O)Nc1cccc(CCc2ccncc2)c1 [CBK286989]	84.8	99.3
CCCCn1nc(C)c(-c2cc(C(=O)O)[nH]n2)c1C [CBK287047]	84.5	95
O=C(O)CCCCCN1C(=O)CC(c2ccc(Cl)cc2)CC1=O [CBK287245]	102	104
CC1Cc2ccccc2N1c1ncnc2nc[nH]c12 (centres unmarked) [CBK287388]	66.9	66.8
O=c1[nH]nc2ccc(S(=O)(=O)N3CCCC3)cn12 [CBK288033]	91.1	80.5
O=C(c1cnc2[nH][nH]c(=O)c2c1)c1ccccc1O [CBK288082]	110	90.5
Nc1nc(=O)c2cnc3ccc(Cl)cc3c2s1 [CBK288175]	79.6	84.6
CNC(=S)N1CCN(c2nsc3ccccc23)CC1 [CBK288515]	83.2	83.5
COc1cc2[nH]c(=S)n(C3CCCC3)c(=O)c2cc1OC [CBK288518]	93.5	84.9
CC(=O)Nc1ccc(S(N)(=O)=O)c2ccccc12 [CBK288522]	94	83.5
O=C(NCCCN1CCCCC1)/C(=N\O)c1ccccc1 [CBK288524]	85.9	97.7
CCCNC(=O)NS(=O)(=O)c1ccc(C)cc1 [CBK288527]	90.2	100
COC(=O)[C@@H]1Cc2c([nH]c3ccccc23)[C@H]2C[C@H](NCCO)C[C@@H](c3ccccc3)N21 [CBK289167]	97.8	94.8
Cn1nnc2cc(NC(=O)N3CC4(C)CC3CC(C)(C)C4)ccc21 (centres unmarked) [CBK304389]	95.3	94.6
